{
  "source": "patent US6958141B2",
  "about": "“Rhenium and technetium complexes containing a hypoxia-localizing moiety” (Bracco International B.V., priority 1991, dated 2005)",
  "key": {"hypoxic border zone": {"tested_on": "hypoxic border zone", "experiment": "Rat focal cerebral ischemia model (MCA occlusion), double-label autoradiography", "format": "in vivo, spontaneously hypertensive rats (SHR)", "conditions": "SHR, injected 1 hour or five days after MCA occlusion, both time points", "description": "A model of focal cerebral ischemia involving tandem occlusion of the internal carotid artery and the ipsilateral middle cerebral artery (MCA) in spontaneously hypertensive rats (SHR) was characterized using the double-label autoradiography procedure described in Example 10. […] Following surgery, which was performed under Halothane anesthesia, the rats were allowed to recover and one hour after the MCA occlusion, ^14C-deoxyglucose was injected as an IV bolus and timed arterial samples were obtained. Twenty-five minutes after ^14C-deoxyglucose injection, ^99mTcCl(DMG)32MP was injected as an IV bolus and the rat was sacrificed 15 seconds later. The brain was rapidly removed and sections and autoradiograms were obtained as described in Example 10. As found in Example 10 for the rabbit LAD occlusion model, the ischemic territory was bordered by a rim of tissue in which glycolysis was elevated. […] Nevertheless, it was clear that the ischemic region is surrounded by a border zone of increased glycolysis. In a second series of experiments, the ^99mTc complex of the ligand described in Example 1 and ^14C-deoxyglucose were co-injected 1 hour or five days after MCA occlusion."}, "[1]": {"tested_on": "hypoxic ischemic border zone", "experiment": "Rabbit focal myocardial ischemia model (LAD occlusion), double-label autoradiography", "format": "in vivo", "conditions": "permanent LAD coronary artery ligation, intravenous tracer, heart sections", "description": "A model of focal myocardial ischemia in the rabbit was developed, using permanent ligation of the left anterior descending (LAD) coronary artery. The model consisted of two studies. In the first, relative regional myocardial blood flow (MBF) and relative regional myocardial rate of glucose metabolism (MMRgl) were determined by autoradiography using a double-label study with the flow tracer ^99mTcCl(CDO)3MeB (R. K. Narra et al., J. Nucl. Med., 1989; 30:1830-1837) and ^14C-deoxy-glucose for MMRgl (L. Sokoloff et al., J. Neurochem., 1977, 28, 897-916). ^14C-deoxyglucose and the ^99mTc-hypoxia-localizing tracer were administered to a second group of rabbits with LAD coronary artery occlusion.\nAfter the surgical preparation and 20 minutes of LAD occlusion, ^14C-deoxyglucose (130-150 μCi) was injected as an intravenous bolus, and timed arterial blood samples were obtained. Twenty-five minutes later, ^99mTcCl(CDO)3MeB (10-12 mCi) was administered intravenously. Five minutes later, the rabbits were sacrificed by intravenous injection of Nembutal and potassium chloride. The heart was excised, frozen in liquid Freon-22, and 20 μm coronal sections obtained with a Microtome. Autoradiographs were obtained on all sections. For the first exposure (˜14 hours duration) of Kodak XAR film, extra heavy duty aluminum foil was interposed between the tissue and film to block completely the radiation emanating from ^14C to obtain the MBF information derived from ^99mTcCl(CDO)3MeB alone. After three days (to allow for decay of ^99mTc); a second autoradiograph was obtained without foil. The second exposure lasted 6-8 days, and,provided an image of the regional distribution of ^14C-deoxyglucose.\nIn a separate experiment using the rabbit LAD occlusion model and the double-label autoradiography procedures described above, the performance of the ^99mTc complex of the ligand described in Example 1 was compared to that of ^14C-misonidazole."}},
  "data": [
    {"substance": "^14C-deoxyglucose [reference compound]", "values": [
      {"measurement": "uptake in brain autoradiograms", "setting": "hypoxic border zone", "result": "increased uptake in the hypoxic border zone relative to surrounding normoxic tissue"},
      {"measurement": "regional myocardial distribution pattern (autoradiography)", "setting": "[1]", "result": "high uptake in the ischemic border zone"}
    ]}
  ]
}
